Measured values reported in patent US20040006127A1, “Activation of the cystic fibrosis transmembrane conductance regulator chloride channel” (priority 2000, published 2004).
“Also recorded” adds a separate entry of the source. One block for each compound: values may come before it.

Experiments:
wild-type human CFTR [1] = molecular target: T1, wild-type human CFTR (Homo sapiens, UniProt P13569); assay: CFTR Cl- currents in excised inside-out membrane patches from C127 cells (time course, I-V studies); type: biochemical; conditions: for effect on channel activity at positive voltages: phloxine B 40 μM; for concentration that maximally stimulated channel activity: excised membrane patches
T1 construct: expressed in transfected cells
T1 sequence (P13569 whole entry): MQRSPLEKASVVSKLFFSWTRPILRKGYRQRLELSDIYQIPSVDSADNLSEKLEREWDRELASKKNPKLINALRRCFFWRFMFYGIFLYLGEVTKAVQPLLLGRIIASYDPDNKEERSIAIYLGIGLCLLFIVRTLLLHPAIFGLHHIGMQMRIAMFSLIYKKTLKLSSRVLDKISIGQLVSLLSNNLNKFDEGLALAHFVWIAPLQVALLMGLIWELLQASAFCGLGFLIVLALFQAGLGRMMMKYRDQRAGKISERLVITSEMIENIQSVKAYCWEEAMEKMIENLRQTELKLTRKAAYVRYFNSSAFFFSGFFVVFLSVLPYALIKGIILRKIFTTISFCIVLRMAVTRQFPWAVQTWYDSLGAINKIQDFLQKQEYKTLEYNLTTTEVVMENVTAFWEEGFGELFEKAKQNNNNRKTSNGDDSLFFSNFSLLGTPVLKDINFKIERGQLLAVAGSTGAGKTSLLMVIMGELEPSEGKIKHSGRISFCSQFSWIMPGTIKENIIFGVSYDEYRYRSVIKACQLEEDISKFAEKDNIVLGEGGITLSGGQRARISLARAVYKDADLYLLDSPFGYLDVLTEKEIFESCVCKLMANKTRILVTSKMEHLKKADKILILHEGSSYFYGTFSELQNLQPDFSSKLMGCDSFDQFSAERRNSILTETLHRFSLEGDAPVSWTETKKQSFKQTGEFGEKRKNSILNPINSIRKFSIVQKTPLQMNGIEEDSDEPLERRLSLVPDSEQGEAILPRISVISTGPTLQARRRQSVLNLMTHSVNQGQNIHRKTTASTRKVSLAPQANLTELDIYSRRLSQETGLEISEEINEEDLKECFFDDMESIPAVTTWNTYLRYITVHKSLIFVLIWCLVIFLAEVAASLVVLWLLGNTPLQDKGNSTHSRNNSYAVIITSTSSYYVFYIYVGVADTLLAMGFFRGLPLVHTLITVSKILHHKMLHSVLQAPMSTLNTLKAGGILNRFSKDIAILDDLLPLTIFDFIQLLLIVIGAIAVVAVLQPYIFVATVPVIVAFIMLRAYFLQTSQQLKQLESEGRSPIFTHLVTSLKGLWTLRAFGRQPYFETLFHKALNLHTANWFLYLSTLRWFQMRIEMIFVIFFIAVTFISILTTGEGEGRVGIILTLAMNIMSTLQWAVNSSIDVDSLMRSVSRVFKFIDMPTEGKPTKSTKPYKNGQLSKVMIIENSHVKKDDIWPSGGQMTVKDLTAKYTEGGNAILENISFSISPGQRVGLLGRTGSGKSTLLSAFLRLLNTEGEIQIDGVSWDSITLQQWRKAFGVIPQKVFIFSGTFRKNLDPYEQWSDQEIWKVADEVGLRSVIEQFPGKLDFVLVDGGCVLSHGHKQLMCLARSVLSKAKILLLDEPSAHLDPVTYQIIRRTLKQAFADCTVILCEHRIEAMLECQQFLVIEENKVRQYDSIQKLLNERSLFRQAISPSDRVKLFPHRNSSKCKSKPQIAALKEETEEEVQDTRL
Method: For electrophysiological experiments, we used mouse mammary epithelial cells (C127 cells) stably expressing wild-type human CFTR or ΔF508, the most common CF-associated mutation (11). C127 cells expressing wild-type CFTR were cultured as previously described (12). C127 cells expressing ΔF508 were cultured at 28° C., to overcome the processing defect of ΔF508 and promote bs delivery to the cell membrane (13). Cells were seeded onto glass coverslips and used within either 48 h (wild-type CFTR) or 1 week (ΔF508).
CFTR Cl^− channels were recorded in excised inside-out membrane patches using an Axopatch 200A patch-clamp amplifier (Axon Instruments Inc., Foster City, USA) and pCLAMP data acquisition and analysis software (version 6.03, Axon Instruments Inc.) as previously described (12,14). The established sign convention was used throughout; currents produced by positive charge moving from intra- to extracellular solutions (anions moving in the opposite direction) are shown as positive currents.
The pipette (extracellular) solution contained (in mM): 140 N-methyl-D-glucamine (NMDG), 140 aspartic acid, 5 CaCl2, 2 MgSO4, and 10 N-tris[hydroxymethyl]methyl-2-aminoethanesulphonic acid (Tes), pH 7.3 with Tris ([Cl^−], 10 mM). The bath (intracellular) solution contained (in mM): 140 NMDG, 3 MgCl2, 1 ethylene glycol-bis(β-aminoethylether)-N,N,N′,N′-tetraacetic acid caesium salt (CsEGTA), and 10 Tes, pH 7.3 with HCl, ([Cl^−], 147 mM; [Ca^2+]free, <10^−8 M). All experiments were conducted at 37° C.
After excision of membrane patches from C127 cells. CFTR Cl^− channels were activated by the addition of the catalytic subunit of protein kinase A (PKA; 75 nM) and ATP (1.0 mM) to the intracellular solution within 5 min of patch excision. […] PKA was maintained in the intracellular solution for the duration of experiments. Voltage was −50 mV. […] The number of channels per patch was determined from the maximum number of simultaneous channel openings observed during the course of an experiment, as previously described (12). […] To investigate whether modulation of CFTR by fluorescein derivatives was voltage dependent, we used a voltage ramp protocol. Macroscopic current-voltage (I-V) relationships were obtained. In the absence and presence of fluorescein derivatives by averaging currents generated by 15-30 ramps of voltage, each of 2 s duration; holding voltage was −50 mV. Basal currents recorded in the absence of PKA and ATP were subtracted from those recorded in the absence and presence of fluorescein derivatives to determine the effect of fluorescein derivatives on CFTR Cl^− currents,
CFTR Cl^− currents were initially recorded on digital audiotape using a digital tape recorder (Biologic Scientific Instruments, model DTR-1204; lntracel Ltd, Royston, UK) at a bandwidth of 10 kHz. On playback, records were filtered with an eight-pole Bessel filter (Frequency Devices, model 902LPF2: Scensys Ltd, Aylesbury, UK) at a corner frequency of 500 Hz and acquired using a Digidata 1200 interface (Axon Instruments Inc.) and pCLAMP at sampling rates of either 2.5 kHz (time course studies) or 5.0 kHz (single-channel studies).
In time course studies, each point is the average current for a 4 s period with data points collected continuously, no data were collected while solutions were changed. Average current (I) for a specific intervention was determined as the average of all the data points collected during the intervention. The relationship between drug concentration and CFTR inhibition was fitted to the Hill equation:
IDrug/IControl=1/{1+([Drug]/Ki)^n}, (1)
where [Drug] is the concentration of drug, IDrug/IControl is the fractional current at the indicated drug concentration relative to that in the same solution in the absence of added drug, Ki is the drug concentration causing half-maximal inhibition, and n is the slope factor (Hill coefficient). Mean data were fitted to a linear form of equation (1) using linear least-squares regression to yield Ki and n values.

wild-type human CFTR [2] = molecular target: T1, wild-type human CFTR; assay: Single-channel recording of CFTR Cl- channels in excised inside-out membrane patches from C127 cells; type: biochemical
ΔF508 CFTR = molecular target: T2, ΔF508 CFTR (Homo sapiens, UniProt P13569, DEL508-508); assay: Single-channel recording of ΔF508 CFTR Cl- channels in excised patches from C127 cells grown at 28° C.; type: biochemical; conditions: 1 μM
T2 construct: expressed in transfected cells
T2 sequence (P13569 with tags, fused parts or gaps DEL508-508): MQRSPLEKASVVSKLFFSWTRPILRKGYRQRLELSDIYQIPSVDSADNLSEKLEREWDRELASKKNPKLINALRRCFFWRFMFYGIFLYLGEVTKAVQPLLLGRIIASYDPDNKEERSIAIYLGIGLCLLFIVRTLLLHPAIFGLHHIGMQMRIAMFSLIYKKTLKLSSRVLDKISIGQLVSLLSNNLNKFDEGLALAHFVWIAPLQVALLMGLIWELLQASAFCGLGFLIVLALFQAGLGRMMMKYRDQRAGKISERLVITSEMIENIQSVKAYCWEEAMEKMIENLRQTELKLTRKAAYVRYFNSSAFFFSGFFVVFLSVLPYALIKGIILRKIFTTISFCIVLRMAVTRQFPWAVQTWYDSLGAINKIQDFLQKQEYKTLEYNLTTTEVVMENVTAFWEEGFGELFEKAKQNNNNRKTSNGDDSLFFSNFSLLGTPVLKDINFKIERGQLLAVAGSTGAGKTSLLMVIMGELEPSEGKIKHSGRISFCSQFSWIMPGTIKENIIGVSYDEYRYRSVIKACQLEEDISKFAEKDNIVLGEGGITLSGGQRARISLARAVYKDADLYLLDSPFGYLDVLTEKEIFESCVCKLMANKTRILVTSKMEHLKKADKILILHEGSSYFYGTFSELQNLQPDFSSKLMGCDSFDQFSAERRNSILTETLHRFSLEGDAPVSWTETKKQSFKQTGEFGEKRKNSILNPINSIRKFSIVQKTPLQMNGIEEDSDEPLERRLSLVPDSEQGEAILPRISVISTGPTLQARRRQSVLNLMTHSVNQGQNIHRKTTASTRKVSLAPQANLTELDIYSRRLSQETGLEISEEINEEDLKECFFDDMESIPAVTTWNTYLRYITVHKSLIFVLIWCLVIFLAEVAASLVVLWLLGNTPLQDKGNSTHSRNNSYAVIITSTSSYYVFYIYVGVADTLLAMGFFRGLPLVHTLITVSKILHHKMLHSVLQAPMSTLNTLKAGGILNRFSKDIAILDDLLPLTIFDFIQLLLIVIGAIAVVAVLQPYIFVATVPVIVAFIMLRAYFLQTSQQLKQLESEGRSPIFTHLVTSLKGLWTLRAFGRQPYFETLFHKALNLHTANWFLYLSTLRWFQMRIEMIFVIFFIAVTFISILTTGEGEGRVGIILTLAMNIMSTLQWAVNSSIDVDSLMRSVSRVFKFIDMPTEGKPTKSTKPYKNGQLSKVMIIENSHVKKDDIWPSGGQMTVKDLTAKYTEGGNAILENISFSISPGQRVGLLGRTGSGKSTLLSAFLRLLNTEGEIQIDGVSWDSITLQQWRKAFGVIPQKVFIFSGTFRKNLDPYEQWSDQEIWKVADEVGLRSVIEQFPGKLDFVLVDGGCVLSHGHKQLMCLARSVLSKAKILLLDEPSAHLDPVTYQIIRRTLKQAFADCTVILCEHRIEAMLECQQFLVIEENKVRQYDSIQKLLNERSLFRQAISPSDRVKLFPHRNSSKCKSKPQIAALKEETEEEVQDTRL

[3] = molecular target: T3, endogenous CFTR Cl- channels in Type I MDCK cells (Canis lupus familiaris, UniProt Q5U820); assay: cAMP-stimulated iodide efflux from Type I MDCK cells; type: cell-based, canine
T3 construct: Type I MDCK cells are kidney epithelial cells that endogenously express the CFTR Cl^− channel; endogenous in cells; host or cells: Type I MDCK cells
T3 sequence (Q5U820 whole entry): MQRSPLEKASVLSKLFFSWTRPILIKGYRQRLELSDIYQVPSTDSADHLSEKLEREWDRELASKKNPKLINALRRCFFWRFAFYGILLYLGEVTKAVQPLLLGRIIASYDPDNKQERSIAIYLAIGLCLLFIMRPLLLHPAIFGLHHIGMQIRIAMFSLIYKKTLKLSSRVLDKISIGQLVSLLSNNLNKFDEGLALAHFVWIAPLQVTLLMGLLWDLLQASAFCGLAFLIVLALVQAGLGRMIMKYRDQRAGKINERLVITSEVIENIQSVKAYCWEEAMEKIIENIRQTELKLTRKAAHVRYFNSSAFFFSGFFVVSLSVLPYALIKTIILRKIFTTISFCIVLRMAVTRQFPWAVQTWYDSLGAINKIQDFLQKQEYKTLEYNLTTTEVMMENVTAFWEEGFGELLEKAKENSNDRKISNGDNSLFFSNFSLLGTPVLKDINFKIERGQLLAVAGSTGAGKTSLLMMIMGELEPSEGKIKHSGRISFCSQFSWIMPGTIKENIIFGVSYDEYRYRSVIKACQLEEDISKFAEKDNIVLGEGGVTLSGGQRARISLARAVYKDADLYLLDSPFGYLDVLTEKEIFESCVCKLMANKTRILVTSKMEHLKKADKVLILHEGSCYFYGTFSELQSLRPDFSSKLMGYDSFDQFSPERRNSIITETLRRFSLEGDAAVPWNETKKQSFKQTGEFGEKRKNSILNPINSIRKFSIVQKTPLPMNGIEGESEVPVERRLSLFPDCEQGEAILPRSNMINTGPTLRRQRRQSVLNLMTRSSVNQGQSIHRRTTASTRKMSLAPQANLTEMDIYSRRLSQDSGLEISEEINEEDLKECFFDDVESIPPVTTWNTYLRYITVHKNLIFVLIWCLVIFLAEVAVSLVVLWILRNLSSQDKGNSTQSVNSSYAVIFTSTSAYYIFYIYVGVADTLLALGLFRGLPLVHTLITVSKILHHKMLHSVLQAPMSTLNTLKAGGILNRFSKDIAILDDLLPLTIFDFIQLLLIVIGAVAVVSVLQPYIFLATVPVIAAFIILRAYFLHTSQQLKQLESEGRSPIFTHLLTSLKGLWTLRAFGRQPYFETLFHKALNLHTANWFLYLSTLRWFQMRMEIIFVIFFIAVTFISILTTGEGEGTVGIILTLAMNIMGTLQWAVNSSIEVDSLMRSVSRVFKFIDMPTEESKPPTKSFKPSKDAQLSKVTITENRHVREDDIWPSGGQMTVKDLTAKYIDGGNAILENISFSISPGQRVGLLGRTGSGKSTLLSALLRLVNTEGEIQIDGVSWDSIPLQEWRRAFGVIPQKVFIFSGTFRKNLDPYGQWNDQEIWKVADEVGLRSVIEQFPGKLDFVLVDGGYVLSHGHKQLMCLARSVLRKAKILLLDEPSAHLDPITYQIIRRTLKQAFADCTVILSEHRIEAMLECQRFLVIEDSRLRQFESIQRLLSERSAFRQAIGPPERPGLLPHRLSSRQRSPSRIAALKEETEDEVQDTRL
Method: For iodide efflux experiments, we used Type I Mardin-Darby canine kidney (MDCK) cells. MDCK cells were cultured in MDCK media (a 1:1 mixture of Dulbecco's Modified Eagle Medium (DMEM) and Ham's F-12 nutrient medium supplemented with 10% fetal bovine serum, 100 U ml^1 penicillin, and […] ml^−streptomycin; all from Life Technologies Ltd, Paisley, UK) at 37° C. in a humidified atmosphere of 5% CO2. Cells were seeded onto 60 mm plastic culture dishes and used 72-96 h later.
Type I MDCK cells (≧90% confluent) were incubated for 1 h in a loading buffer containing (mM): 136 Nal, 3 KNO3, 2 Ca(NO3)2, 11 glucose, and 20 Hepes, adjusted to pH 7.4 with NaOH. […] The efflux buffer was changed at 1 min intervals over the duration of the experiment, which typically lasted 18 min. Four minutes after anion substitution, cells were exposed to agonists for 4 min. The amount of iodide in each 2.5 ml sample of efflux buffer was determined using an iodide-selective electrode (Russell pH Ltd. Auchtermuchty, UK). Cells were loaded and experiments performed at room temperature (23° C.).
Type I MDCK cells are kidney epithelial cells that endogenously express the CFTR Cl^− channel (20).
Nitrate was substituted for iodide in the bathing medium at t=−4 min and iodide efflux was monitored at 1 min intervals, for the duration of the experiment.

KATP currents = molecular target: T4, KATP currents (Homo sapiens, UniProt Q09428+Q14654); conditions: added to the extracellular solution; de Weille et al. (10); cited from earlier work
T4 construct: host or cells: pancreatic β-cells

[4] = molecular target: wild-type CFTR Cl- channels (Homo sapiens, UniProt P13569); conditions: reported by Wang et al. (18); cited from earlier work
Chain of wild-type CFTR Cl- channels (P13569 whole entry): as the sequence (P13569 whole entry) above

[5] = eosin Y 100 μM, symmetrical 147 mM Cl-, ATP 1 mM
[6] = 1 μM, ATP 0.3 mM, PKA 75 nM, -50 mV

Structure (SMILES): O=C(O)c1c(Cl)c(Cl)c(Cl)c(Cl)c1-c1c2cc(Br)c(=O)c(Br)c-2oc2c(Br)c(O)c(Br)cc12 [phloxine B]
- Ki (wild-type human CFTR [1]): 17 µM
- reversibility of modulation of CFTR (wild-type human CFTR [1]): partially reversible
- effect on CFTR Cl- currents (concentration-response, FIG. 3) (wild-type human CFTR [1]; -50 mV): stimulated and inhibited
- n (Hill coefficient) of current inhibition (wild-type human CFTR [1]; -50 mV): 2
- concentrations causing concentration-dependent decrease in CFTR Cl- current (wild-type human CFTR [1]; ATP 0.3 mM, PKA 75 nM, -50 mV): 20 to 50 µM
- concentrations that stimulated CFTR Cl- currents (wild-type human CFTR [1]; ATP 0.3 mM, PKA 75 nM, -50 mV): 1 to 5 µM
- effect on the activity of CFTR Cl- channels (wild-type human CFTR [1]; added to intracellular solution in the absence of either ATP or PKA): without effect
- effect on channel activity at positive voltages (wild-type human CFTR [1]; [5]): relieve channel block by phloxine B (40 μM), but do not stimulate channel activity
- concentration that maximally stimulated channel activity (wild-type human CFTR [1]): 5 µM
- open probability (Po) (wild-type human CFTR [2]; [6]): large increase in Po
- single-channel current amplitude (i) (wild-type human CFTR [2]; [6]): small, but significant (P<0.05), reduction
- interburst interval (wild-type human CFTR [2]; 1 μM, single active channel): no change; also recorded: without effect
- mean burst duration (wild-type human CFTR [2]; 1 μM, single active channel): large increase in the duration of bursts; also recorded: significantly increased
- Po in the presence of ADP (wild-type human CFTR [2]; ADP 0.3 mM + phloxine B 1 μM, ATP 0.3 mM, PKA 75 nM): 0.43±0.05
- maximum Po (Pomax), Michaelis-Menten fit (wild-type human CFTR [2]; in the presence of phloxine B 1 μM): 0.72
- interburst interval of ΔF508 (ΔF508 CFTR): without altering
- mean burst duration of ΔF508 CFTR Cl channels (ΔF508 CFTR): dramatically prolonging
- increase of the Po of ΔF508 (ΔF508 CFTR; ATP 1.0 mM, PKA 75 nM): 1.5 fold
- effect on iodide efflux in the absence of cAMP agonists ([3]; 10 μM): without effect
- effect on cAMP-stimulated iodide efflux ([3]; 10 μM with cAMP agonists): enhanced both the speed and magnitude
- effect on KATP currents in pancreatic β-cells (KATP currents): inhibits KATP currents

- effect on CFTR Cl- currents (concentration-response, FIG. 3) (wild-type human CFTR [1]; -50 mV): stimulated and inhibited
- concentrations that stimulated CFTR Cl- currents (wild-type human CFTR [1]; ATP 0.3 mM, PKA 75 nM, -50 mV): 0.1 to 1.0 µM
- concentration that maximally stimulated channel activity (wild-type human CFTR [1]): 1 µM
- open probability (Po) (wild-type human CFTR [2]; [6]): 0.40±0.08
Structure (SMILES): O=C1OC2(c3cc(I)c(O)c(I)c3Oc3c2cc(I)c(O)c3I)c2c(Cl)c(Cl)c(Cl)c(Cl)c21 [bengal rose B]

Structure (SMILES): O=C1OC2(c3ccc(O)cc3Oc3cc(O)ccc32)c2ccccc21 [fluorescein]
- effect on CFTR Cl- currents (concentration-response, FIG. 3) (wild-type human CFTR [1]; -50 mV): only inhibited

- effect on CFTR Cl- currents (concentration-response, FIG. 3) (wild-type human CFTR [1]; -50 mV): stimulated and inhibited
- effect on channel activity at positive voltages (wild-type human CFTR [1]; [5]): channel activity is stimulated
- effect on channel activity at negative voltages (wild-type human CFTR [1]; [5]): inhibits channel activity
- open probability (Po) (wild-type human CFTR [2]; [6]): 0.43±0.02
Structure (SMILES): O=C1OC2(c3ccccc31)c1cc(Br)c(O)c(Br)c1Oc1c2cc(Br)c(O)c1Br [eosin Y]

Structure (SMILES): O=c1c(-c2ccc(O)cc2)coc2cc(O)cc(O)c12 [genistein, 5,7-dihydrox-3-(4-hydroxyphenyl)-4H-1-benzopyran-4-one]
- concentration that maximally stimulated wild-type CFTR Cl- channels [4]: 35 µM

Structure (SMILES): Nc1ncnc2c1ncn2[C@@H]1O[C@H](COP(=O)(O)OP(=O)(O)O)[C@@H](O)[C@H]1O [ADP, reference compound]
- Po (wild-type human CFTR [2]; ADP 0.3 mM alone, ATP 0.3 mM, PKA 75 nM): 0.21±0.02
- Po as % of the control value (wild-type human CFTR [2]; ADP 0.3 mM, ATP 0.3 mM, PKA 75 nM): 49±1%

- effect on CFTR Cl- currents (concentration-response, FIG. 3) (wild-type human CFTR [1]; -50 mV): only inhibited
Structure (SMILES): O=C1OC2(c3ccc(O)cc3Oc3cc(O)ccc32)c2c(Cl)c(Cl)c(Cl)c(Cl)c21 [tetrachlorofluorescein]

Structure (SMILES): Nc1ncnc2c1ncn2[C@@H]1O[C@H](COP(=O)(O)OP(=O)(O)OP(=O)(O)O)[C@@H](O)[C@H]1O [ATP, reference compound]
- EC50 (wild-type human CFTR [1]; PKA-phosphorylated channels, read-out: EC50 for activation of CFTR Cl- channels by intracellular ATP): 300 µM
